ChEMBL document CHEMBL1201862, “PubChem BioAssay data set” (2004)
The source made the active and inactive calls.

How the values were obtained:
[1] = target: Diphosphomevalonate decarboxylase (Streptococcus pneumoniae serotype 2 (strain D39 / NCTC 7466), UniProt Q9FD53); test: S. pneumoniae DPM-DC inhibition retest, confirmation, biochemical, cuvette format, coupled NADH fluorescence (AID 1028); assay type: functional
[2] = half-maximal inhibitory concentration for glucagon-like peptide-1 release, STC-1 cell line, dose-response (AID 1117345); assay type: functional, cell-based
[3] = Glucagon-like peptide 1 release potency, NCI-H716 cell line, dose-response, half-maximal inhibitory concentration (AID 1117344); assay type: functional, cell-based
Paired box protein Pax-8 = Paired box protein Pax-8 (Homo sapiens, UniProt Q06710); test: inhibitors of PAX8-driven TPO luciferase reporter, dose response, RMG-I cells, cherry-pick (AID 687027); assay type: functional, cell-based;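 further: luciferase reporter driven by Pax8 target thyroperoxidase promoter measured by SteadyGlo luminescence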
[4] = cytotoxicity in COV434 cells, dose response, cytotoxicity control for PAX8 inhibitor project, cell-based, plate reader, dry powder, SA7 (AID 743145); assay type: functional
[5] = cytotoxicity in OV-90 ovarian cancer cells, dose response, PAX8 inhibitor project, cell-based, plate reader, dry powder, SA8 (AID 743149); assay type: functional
[6] = cytotoxicity dependent on PAX8, dose response, cell-based, plate reader, dry powder (AID 743049); assay type: functional
[7] = cytotoxicity in COV362 ovarian cancer cells, dose response, cytotoxicity control for PAX8 inhibitor project, cell-based, plate reader, dry powder, SA12 (AID 743144); assay type: functional
[8] = IOSE-T80 ovarian epithelial cell cytotoxicity, dose response, cytotoxicity control for PAX8 inhibitor project, plate reader, dry powder samples (AID 743045); assay type: functional, cell-based
[9] = PAX2 cell-based inhibition, dose response, selectivity assay for PAX8 inhibitor project, plate reader, dry powder samples (AID 743048); assay type: functional;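 further: HEK293 cells carrying a WT1 promoter luciferase reporter driven by expressed Pax2; potency is for inhibition of Pax2 driven reporter signal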
[10] = PAX5 activity inhibitors, dose response, selectivity assay for PAX8 inhibitor project, cell-based, plate reader, dry powder samples (AID 743047); assay type: functional;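 further: HEK293 cells carrying a Pax5 driven CD19 promoter luciferase reporter; potency of inhibitors that lower reporter luminescence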
[11] = cytotoxicity in OVCAR4 cells, dose response, cytotoxicity control for PAX8 inhibitor project, cell-based, plate reader, dry powder, SA11 (AID 743150); assay type: functional; conditions: OVCAR-4
[12] = target: NAD-dependent protein deacylase sirtuin-5, mitochondrial (Homo sapiens, UniProt Q9NXA8); test: SIRT5 desuccinylase inhibitors, dose response, biochemical, fluorescence imaging, cherry-pick, set 5 (AID 720591);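 further: desuccinylation of succinyl peptide AMC substrate read as fluorescence after trypsin release; potency of inhibitors that lower fluorescence and may act on trypsin instead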
Protein Tat = Protein Tat (Human immunodeficiency virus type 1 group M subtype B (isolate HXB2)(HIV-1), UniProt P04608); assay type: functional;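 further: tat binding to TAR RNA read out by fluorescence polarization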
[13] = target: T1, Endoribonuclease toxin MazF (Escherichia coli K-12, UniProt P0AE70); test: MazF toxin RNase activators, dose response, biochemical, fluorescence, single-stranded RNA substrate, uHTS hits (AID 588481); assay type: functional
T1 sequence (P0AE70 whole entry): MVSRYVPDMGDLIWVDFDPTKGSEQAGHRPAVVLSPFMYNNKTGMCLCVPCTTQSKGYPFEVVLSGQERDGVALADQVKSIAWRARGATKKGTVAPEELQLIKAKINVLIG

[14] = target: T1, Endoribonuclease toxin MazF; test: fluorescent RNA oligo signal without MazF, dose response, counter-screen for MazEF activator project, biochemical, fluorescence, single-stranded RNase substrate (AID 588502); assay type: functional
[15] = growth suppression of beta-catenin-knockout colon cells, dose response, cell-based, HCT116, human colon tumor (AID 1045); assay type: functional;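 further: HCT116 colon tumor cells with beta catenin knocked out; cells exposed to compound for 60 hours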
Protein skinhead-1 = target: T2, Protein skinhead-1 (Caenorhabditis elegans, UniProt P34707); assay type: functional
T2 sequence (P34707 whole entry): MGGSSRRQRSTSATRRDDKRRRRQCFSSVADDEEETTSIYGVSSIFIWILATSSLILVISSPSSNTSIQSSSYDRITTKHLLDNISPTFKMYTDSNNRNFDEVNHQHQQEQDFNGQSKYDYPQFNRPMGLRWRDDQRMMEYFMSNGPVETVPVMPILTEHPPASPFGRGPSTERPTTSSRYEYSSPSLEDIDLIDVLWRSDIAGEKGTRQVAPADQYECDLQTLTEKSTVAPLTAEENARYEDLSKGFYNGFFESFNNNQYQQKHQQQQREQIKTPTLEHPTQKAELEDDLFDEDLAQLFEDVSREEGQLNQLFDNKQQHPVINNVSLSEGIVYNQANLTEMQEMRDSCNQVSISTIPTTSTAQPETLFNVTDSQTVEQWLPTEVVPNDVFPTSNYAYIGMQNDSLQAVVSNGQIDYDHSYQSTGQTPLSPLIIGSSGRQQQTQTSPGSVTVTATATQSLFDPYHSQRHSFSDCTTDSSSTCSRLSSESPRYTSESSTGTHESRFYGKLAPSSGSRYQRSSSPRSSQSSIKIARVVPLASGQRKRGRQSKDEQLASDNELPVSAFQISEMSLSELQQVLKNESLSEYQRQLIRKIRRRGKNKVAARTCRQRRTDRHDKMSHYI

[16] = growth suppression of PTEN-null colon cells, dose response, cell-based, HCT116 PTEN knockout (AID 1047); assay type: functional;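 further: HCT116 colon tumor cells with PTEN knocked out; cells exposed to compound for 60 hours before readout; potency for loss of cell viability measured by luminescence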
[17] = inhibitors of PGC1a acetylation in cells, dose response, cell-based, cherry-picked samples (AID 720514); assay type: functional;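 further: potency may reflect raised or lowered acetylation signal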
[18] = Mtb BioA inhibitors by displacement, dose response, biochemical, coupled fluorescence displacement, 20-point, dry powder (AID 743357); assay type: functional
[19] = target: RNA-editing ligase 1, mitochondrial (Trypanosoma brucei brucei, UniProt P86926); test: TbREL1 ligase inhibitors, dose response, biochemical, fluorescence, Trypanosoma brucei (AID 1117295); assay type: functional
Sequence of RNA-editing ligase 1, mitochondrial (P86926 whole entry): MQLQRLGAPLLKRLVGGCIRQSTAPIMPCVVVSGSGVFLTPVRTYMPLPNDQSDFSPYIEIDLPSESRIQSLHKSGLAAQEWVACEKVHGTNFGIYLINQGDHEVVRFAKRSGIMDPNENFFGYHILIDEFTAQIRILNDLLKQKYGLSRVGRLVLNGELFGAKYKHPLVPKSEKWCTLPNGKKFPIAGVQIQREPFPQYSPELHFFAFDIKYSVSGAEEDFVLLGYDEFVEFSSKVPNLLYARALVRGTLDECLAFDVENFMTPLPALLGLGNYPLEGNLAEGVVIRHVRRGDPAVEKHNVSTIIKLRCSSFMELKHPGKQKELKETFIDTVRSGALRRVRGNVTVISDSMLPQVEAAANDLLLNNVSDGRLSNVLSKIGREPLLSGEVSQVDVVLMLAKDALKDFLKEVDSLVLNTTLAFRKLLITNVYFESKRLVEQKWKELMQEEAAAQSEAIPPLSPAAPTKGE

Sequence of Paired box protein Pax-8 (Q06710 whole entry): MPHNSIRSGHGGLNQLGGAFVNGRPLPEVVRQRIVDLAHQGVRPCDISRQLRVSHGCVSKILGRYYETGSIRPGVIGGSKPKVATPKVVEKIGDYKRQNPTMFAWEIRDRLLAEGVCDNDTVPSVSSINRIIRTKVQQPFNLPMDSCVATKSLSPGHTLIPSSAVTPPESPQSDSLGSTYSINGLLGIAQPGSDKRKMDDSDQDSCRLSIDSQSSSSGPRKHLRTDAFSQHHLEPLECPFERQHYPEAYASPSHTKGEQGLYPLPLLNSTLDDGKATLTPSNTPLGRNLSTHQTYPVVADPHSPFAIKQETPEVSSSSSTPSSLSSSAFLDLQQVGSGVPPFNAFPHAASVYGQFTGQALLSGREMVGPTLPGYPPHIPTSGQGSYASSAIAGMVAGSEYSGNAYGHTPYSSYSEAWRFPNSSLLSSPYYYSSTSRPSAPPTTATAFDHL
Sequence of NAD-dependent protein deacylase sirtuin-5, mitochondrial (Q9NXA8 whole entry): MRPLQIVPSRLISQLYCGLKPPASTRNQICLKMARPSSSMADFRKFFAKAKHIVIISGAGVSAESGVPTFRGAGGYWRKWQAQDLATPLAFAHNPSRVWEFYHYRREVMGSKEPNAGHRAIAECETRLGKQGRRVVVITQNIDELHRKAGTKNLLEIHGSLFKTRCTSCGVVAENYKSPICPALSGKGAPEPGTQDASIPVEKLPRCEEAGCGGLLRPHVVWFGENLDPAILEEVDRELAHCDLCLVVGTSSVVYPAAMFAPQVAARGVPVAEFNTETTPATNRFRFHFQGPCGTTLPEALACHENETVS
Sequence of Protein Tat (P04608 whole entry): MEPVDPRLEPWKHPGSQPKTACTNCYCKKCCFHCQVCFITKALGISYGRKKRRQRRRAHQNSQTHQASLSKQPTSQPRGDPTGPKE
Sequence of Diphosphomevalonate decarboxylase (Q9FD53 whole entry): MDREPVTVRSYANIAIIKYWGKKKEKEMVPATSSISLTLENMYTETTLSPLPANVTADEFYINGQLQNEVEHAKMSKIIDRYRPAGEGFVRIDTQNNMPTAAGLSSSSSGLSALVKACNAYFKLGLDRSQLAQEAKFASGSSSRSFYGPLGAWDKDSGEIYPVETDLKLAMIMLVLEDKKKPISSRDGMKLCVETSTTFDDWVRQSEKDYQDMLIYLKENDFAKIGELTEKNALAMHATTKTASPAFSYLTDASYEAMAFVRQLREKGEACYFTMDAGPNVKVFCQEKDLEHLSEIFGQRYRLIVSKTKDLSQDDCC

In the case of `CN(C)C(=O)c1ccc(-n2sc3ccccc3c2=O)cc1`, the IC50 [1] is reported as 21.9 µM (active).
With `O=C(Nc1cccc2c(=O)cc(-c3nnn[nH]3)oc12)c1ccc(OCCCCc2ccccc2)cc1` the IC50 [2] was > 40 µM (inactive) and the IC50 [3] was > 40 µM (inactive).
With `COc1ccc(CCN2C(=O)CSC2=S)cc1OC` the AC50 (Paired box protein Pax-8) was 7.01 µM (active), the AC50 [4] was 6.49 µM (active) and the AC50 [5] was 8.61 µM (active). The AC50 [6] was 16 µM (active), the AC50 [7] was 16.6 µM (active) and the AC50 [8] was 16.8 µM (active). The AC50 [9] was 68.3 µM (active), the AC50 [10] was > 100 µM (inactive) and the AC50 [11] was 51.2 µM (active).
For `O=C(O)CCNC(=O)c1ccc(NC(=O)C(c2ccccc2)c2ccccc2)cc1`, the AC50 [12] was 10.6 µM (active).
For `CCN(CC)c1ccc(/C=N/c2ccc(N(C)C)cc2)c(O)c1`, the IC50 (Protein Tat) was > 100 µM (inconclusive), the EC50 [13] was > 99 µM (inactive) and the EC50 [14] was > 99 µM (inactive).
In the case of `CCOc1cc(CNC2CCCC2)cc(Cl)c1OCc1ccc(F)cc1`, the EC50 [15] is reported as 12.5 µM (active), the IC50 (Protein skinhead-1) is reported as < 3.13 µM (active) and the EC50 [16] is reported as 16.1 µM (active). The AC50 [17] was 9.73 µM (active).
With `N#Cc1ccc(N2CCN(C(=O)c3ccc4c(c3)OCO4)CC2)cc1` the AC50 [18] was 16.8 µM (active).
In the case of `O=C(O)c1ccnc(C(=O)O)c1`, the IC50 [19] is reported as > 96.6 µM (inactive).
